Data published in patent US12129265B2, “Therapeutic agents and uses thereof” (Ankh Life Sciences Limited, priority 2020, dated 2024).

Assays:
Assay in all cases: CellTiter-Glo in vitro cell proliferation assay, Example 8
[1] = system: Jeko-1 Bortezomib resistant cells; type: cell-based; details: Homo sapiens, Mantle Cell Lymphoma, 72 hours
Method: (§1) In this Example, in vitro cell proliferation assays were performed using: (1) Human Myeloma tumor cell lines; (2) Human Lymphoma tumor cell lines; (3) Solid Human tumor cell lines; and (4) Parental, Lenalidomide resistant and Bortezomib resistant Jeko-1 Mantle cell Lymphoma tumor cell lines. The compounds tested were three diharmaline compounds, namely the 518B562 (or simply 562), 560, and 561 compounds. In addition, a monoharmaline product designated as 518F014 was also tested. This monoharmaline product had the following structure:
(§2) Each proliferation assay was carried out as follows. The test cells were plated in growth media using a 384-well microtiter plate at 50 μL volume. The cells were incubated for 24 hours at 37° C. in a humidified incubator. After 24 hours of incubation, the test compounds were added to the test wells in DSMO solvent, at concentrations ranging from 0.0075-100 μM. Control wells received equal volumes of DSMO, without compound. Following drugging, the cells were incubated for 72 hours at 37° C. in a humidified incubator. After this exposure, 100 μL of a 1:1 mixture of sterile water and CellTiter-Glo® reagent (Promega) was added to each well. The plates were then incubated for 60 minutes at room temperature, followed by recording the luminescence value of each well using a luminometer as a measure of cell proliferation.

[2] = system: Jeko-1 Lenalidomide resistant cells; type: cell-based; details: Homo sapiens, Mantle Cell Lymphoma, 72 hours
Method: as §1, §2

SU-DHL-4 cells = type: cell-based; details: Homo sapiens; SU-DHL-4, Diffuse Large B-Cell Lymphoma, 72 hours; read-out: Mean IC50
Method: as §1, §2

N87 cells = type: cell-based; details: Homo sapiens; N87, Gastric, 72 hours; read-out: Mean IC50
Method: as §1, §2

Jeko-1 Parental cells = type: cell-based; details: Homo sapiens, Mantle Cell Lymphoma, 72 hours
Method: as §1, §2

RXF-393 cells = type: cell-based; details: Homo sapiens; RXF-393, Renal, 72 hours; read-out: Mean IC50
Method: as §1, §2

SU-DHL-6 cells = type: cell-based; details: Homo sapiens; SU-DHL-6, Diffuse Large B-Cell Lymphoma, 72 hours; read-out: Mean IC50
Method: as §1, §2

BxPC-3 cells = type: cell-based, Human; details: Homo sapiens; BxPC-3, Pancreatic, 72 hours; read-out: Mean IC50
Method in brief: (§3)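 24 h pre-incubation of plated cells at 37 °C; compound 0.0075–100 μM in DMSO; 72 h exposure at 37 °C; CellTiter-Glo, 60 min RT; luminescence read. Vehicle controls: DMSO alone.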

FaDu cells = type: cell-based, Human; details: Homo sapiens, Squamous, 72 hours, read-out: Mean IC50
Method in brief: as §3

KMM-1 cells = type: cell-based, Human; details: KMM-1, Human Myeloma, 72 hours; read-out: Mean IC50
Method in brief: as §3

MOLP-8 cells = type: cell-based, Human; details: MOLP-8, Human Myeloma, 72 hours; read-out: Mean IC50
Method in brief: as §3

H1650 (EGFR mut) cells = type: cell-based, Human; details: Homo sapiens, NCI-H1650, Non Small Cell Lung, 72 hours, read-out: Mean IC50
Method in brief: as §3

KHM-1B cells = type: cell-based, Human; details: Human Myeloma, 72 hours, read-out: Mean IC50
Method in brief: as §3

H1975 (EGFR mut) cells = type: cell-based, Human; details: Homo sapiens, NCI-H1975, Non Small Cell Lung, 72 hours, read-out: Mean IC50
Method in brief: as §3

HCC70 cells = type: cell-based, Human; details: Homo sapiens; HCC70, Triple Negative Breast, 72 hours; read-out: Mean IC50
Method in brief: as §3

MM.1s cells = type: cell-based, Human; details: MM1.S; MM.IS, Human Myeloma, 72 hours; read-out: Mean IC50
Method in brief: as §3

MIA PaCa-2 cells = type: cell-based, Human; details: Homo sapiens; MIA PaCa-2, Pancreatic, 72 hours; read-out: Mean IC50
Method in brief: as §3

H929 cells = type: cell-based, Human; details: NCI-H929; H929, Human Myeloma, 72 hours; read-out: Mean IC50
Method in brief: as §3

MDA-MB-231 cells = type: cell-based, Human; details: Homo sapiens; MDA-MB-231, Triple Negative Breast, 72 hours; read-out: Mean IC50
Method in brief: as §3

OCI-LY3 cells = type: cell-based, Human; details: Homo sapiens; OCI-LY3, Diffuse Large B-Cell Lymphoma, 72 hours; read-out: Mean IC50
Method in brief: as §3

L363 cells = type: cell-based, Human; details: L-363; L363, Human Myeloma, 72 hours; read-out: Mean IC50
Method in brief: as §3

KMS-34 cells = type: cell-based, Human; details: KMS-34, Human Myeloma, 72 hours; read-out: Mean IC50
Method in brief: as §3

MDA-MB-468 cells = type: cell-based, Human; details: Homo sapiens; MDA-MB-468, Triple Negative Breast, 72 hours; read-out: Mean IC50
Method in brief: as §3

DOHH-2 cells = type: cell-based, Human; details: Homo sapiens; DOHH-2, Diffuse Large B-Cell Lymphoma, 72 hours; read-out: Mean IC50
Method in brief: as §3

KMS-11 cells = type: cell-based, Human; details: KMS-11, Human Myeloma, 72 hours; read-out: Mean IC50
Method in brief: as §3

ASPC-1 cells = type: cell-based, Human; details: Homo sapiens, ASPC1; ASPC-1, Pancreatic, 72 hours; read-out: Mean IC50
Method in brief: as §3

AN3CA cells = type: cell-based, Human; details: Homo sapiens, AN3-CA, Endometrial, 72 hours, read-out: Mean IC50
Method in brief: as §3

JIM1 cells = type: cell-based, Human; details: JIM1, Human Myeloma, 72 hours; read-out: Mean IC50
Method in brief: as §3

KMS-27 cells = type: cell-based, Human; details: KMS-27, Human Myeloma, 72 hours; read-out: Mean IC50
Method in brief: as §3

HEC-1a cells = type: cell-based, Human; details: Homo sapiens, Endometrial, 72 hours, read-out: Mean IC50
Method in brief: as §3

A2780 cells = type: cell-based, Human; details: Homo sapiens; A2780, Ovarian, 72 hours; read-out: Mean IC50
Method in brief: as §3

A498 cells = type: cell-based, Human; details: Homo sapiens; A498, Renal, 72 hours; read-out: Mean IC50
Method in brief: as §3

A2780CP cells = type: cell-based, Human; details: Homo sapiens, A2780C/P, Ovarian, 72 hours, read-out: Mean IC50
Method in brief: as §3

SiHA cells = type: cell-based, Human; details: Homo sapiens, Squamous, 72 hours, read-out: Mean IC50
Method in brief: as §3

IC50 (SU-DHL-4 cells): 91.3 µM | IC50 (SU-DHL-6 cells): 50 µM | IC50 (BxPC-3 cells): 98.7 µM | IC50 (H1650 (EGFR mut) cells): > 100 µM | IC50 (H1975 (EGFR mut) cells): 79.7 µM | IC50 (MM.1s cells): > 100 µM | IC50 (MIA PaCa-2 cells): > 100 µM | IC50 (H929 cells): 80.3 µM | IC50 (MDA-MB-231 cells): 78.2 µM | IC50 (OCI-LY3 cells): > 100 µM | IC50 (MDA-MB-468 cells): > 100 µM | IC50 (ASPC-1 cells): 87.1 µM | IC50 (A2780 cells): 70.9 µM | IC50 (A2780CP cells): > 100 µM
Structure (SMILES): COc1ccc2c(c1)=NC1=C(CCc3ccc(O)c(OC)c3)NCCC=21 [518F014]
IC50 [1]: 87.6 µM | IC50 [2]: 79.4 µM | IC50 (N87 cells): 40.6 µM | IC50 (Jeko-1 Parental cells): 89.4 µM | IC50 (RXF-393 cells): 96.5 µM | IC50 (FaDu cells): > 100 µM | IC50 (KMM-1 cells): 82.2 µM | IC50 (MOLP-8 cells): 86.4 µM | IC50 (KHM-1B cells): 94.1 µM | IC50 (HCC70 cells): > 100 µM | IC50 (L363 cells): 99.1 µM | IC50 (KMS-34 cells): > 100 µM | IC50 (DOHH-2 cells): > 100 µM | IC50 (KMS-11 cells): > 100 µM | IC50 (AN3CA cells): 88.1 µM | IC50 (JIM1 cells): 85.2 µM | IC50 (KMS-27 cells): 91.2 µM | IC50 (HEC-1a cells): > 100 µM | IC50 (A498 cells): > 100 µM | IC50 (SiHA cells): > 100 µM
